Experimental data as given in patent US11879145B2, “Reagents and methods for replication, transcription, and translation in semi-synthetic organisms” (The Scripps Research Institute, priority 2019, dated 2024).
Where “and” joins values, the source holds several entries; their conditions need not be identical. Equal entries are not always repeated. Entries after “also recorded” stand apart in the source; their conditions may differ.

Legend:
sfGFP^151(AXC) gene = assay: UBP retention in the sfGFP gene by streptavidin gel shift assay (in vivo screen of dXTPs); type: cell-based, E. coli; settings: dTPT3TP 10 μM, strain YZ3
Experimental: (§1) These plasmids were used to transform E. coli expressing the nucleoside triphosphate transporter PtNTT2 (strain YZ38) and harboring a plasmid encoding Mb PylRS. After transformation, colonies were selected and grown to an OD600˜1.0 in liquid media supplemented with dTPT3TP (10 μM) and one of seven different dXTPs (FIG. 2) added at varying concentrations (150 μM, 10 μM, or 5 μM). Cells were then diluted into fresh expression media containing the same unnatural deoxyribonucleotides as well as NaMTP (250 μM), TPT3TP (30 μM), and AzK (10 mM). After a brief incubation, T7 RNAP and tRNAPyl(GYT) expression was induced by the addition of isopropyl-β-d-thiogalactoside (IPTG, 1 mM). After an additional 1 h of incubation, the expression of sfGFP^151(AXC) was initiated by the addition of anhydrotetracycline (aTc, 100 ng/mL).
(§2) Analysis of PCR products. After 2.5 h, plasmids were isolated and then the genes of interest were independently PCR amplified using d5SICSTP and a biotinylated analog of dNaMTP7. The resulting PCR product was analyzed via a gel mobility shift assay using streptavidin to quantify the UBP retained as a percent shift of the total amplified product (hereafter referred to as the streptavidin gel shift assay) (FIG. 3A and FIG. 3B).
In vivo Translation Screen of dXTPs. An overnight culture of the SSO strain YZ3 carrying the pGEX-MbPylRS TetR plasmid was grown in 2×YT supplemented with 50 mM potassium phosphate, […] chloramphenicol and 100 μg/mL carbenicillin (herein referred to in this section as “media”), then diluted back to an OD600 of 0.03 in the same media and grown to an OD600 of 0.4 to 0.6. The culture was then chilled with shaking over ice-water for 15 minutes then pelleted by centrifugation at 3,200×g for 10 min. Cells were then resuspended and washed with ice-cold ddH2O twice then resuspended in ice-cold ddH2O to an OD600 of 55-65. The electrocompetent cells (50 μL) and 1 ng of Golden Gate assembled plasmid with the UBP within the sfGFP and tRNAPyl genes (see Golden Gate Assembly of Plasmids) were transferred to a pre-chilled electroporation cuvette (0.2-cm-gap), then electroporated (Gene Pulser II; Bio-Rad) according to manufacturer's recommendations (voltage […], capacitor 2.5 μF, resistor 200Ω), and then immediately diluted with 950 μL of media. An aliquot (40 μL) of the transformation was then diluted five-fold in media supplemented with dNaMTP (150 μM) and dTPT3TP (10 μM) for a final volume of 200 μL then allowed to recover for 1 h shaking at 37° C. […] The culture was monitored for cell growth (Envision 2103 Multilabel Plate Reader with a 590/20 nm filter) and then collected at an OD600˜1.0. […]

tRNA^Pyl(GYT) gene = assay: UBP retention in the tRNA gene by streptavidin gel shift assay (in vivo screen of dXTPs); type: cell-based, E. coli; settings: dTPT3TP 10 μM, strain YZ3
Experimental: as §1, §2
In vivo Translation Screen of dXTPs. An overnight culture of the SSO strain YZ3 carrying the pGEX-MbPylRS TetR plasmid was grown in 2×YT supplemented with 50 mM potassium phosphate, […] chloramphenicol and 100 μg/mL carbenicillin (herein referred to in this section as “media”), then diluted back to an OD600 of 0.03 in the same media and grown to an OD600 of 0.4 to 0.6. The culture was then chilled with shaking over ice-water for 15 minutes then pelleted by centrifugation at 3,200×g for 10 min. Cells were then resuspended and washed with ice-cold ddH2O twice then resuspended in ice-cold ddH2O to an OD600 of 55-65. […] The culture was monitored for cell growth (Envision 2103 Multilabel Plate Reader with a 590/20 nm filter) and then collected at an OD600˜1.0. […]

sfGFP^151(AXC) [1] = assay: Bulk culture sfGFP fluorescence normalized to cell growth (in vivo screen of dXTPs); type: cell-based, E. coli; settings: for sfGFP fluorescence normalized to cell growth: AzK added
Experimental: as §1
Analysis of reporter protein production. To characterize the amount of protein produced, bulk culture fluorescence normalized to cell growth was measured 2.5 h after the induction of protein expression (FIG. 3C). […] Cells growth was not observed when provided with only 5 μM dNaMTP. While similar at high concentrations, at lower concentrations the use of each dXTP analog results in a greater AzK-dependent increase in fluorescence than does the use of dNaMTP.
Ten-fold dilutions of the glycerol stock were re-plated onto solid growth media supplemented with dNaMTP (150 μM), dTPT3TP (10 μM), and 2% w/v agar, then grown at 37° C. overnight. Single colonies were picked and grown in growth media (300 μL) supplemented with corresponding dXTP (various concentrations), and dTPT3TP (10 μM), then monitored for cell growth and collected at an OD600˜1.0. Once all samples were collected, samples were left on ice overnight. The samples were then re-diluted to OD600˜0.1, to a final volume of 300 μL and provided with the corresponding dXTP (various concentrations), and dTPT3TP (10 μM). […] From this point on, cells were monitored for growth and fluorescence. […]

sfGFP^151(AXC) [2] = assay: Fidelity of AzK incorporation into sfGFP, DBCO-TAMRA gel shift / western blot (in vivo screen of dXTPs); type: cell-based, E. coli
Experimental: Analysis of reporter protein fidelity. To directly assess the fidelity of unnatural protein production, cells were harvested 2.5 h after the induction of protein expression and the sfGFP produced was purified and subjected to a strain-promoted azide-alkyne cycloaddition reaction with dibenzocyclooctyne (DBCO) linked to a TAMRA dye by four PEG units. In addition to tagging the proteins containing the ncAA with a detectable fluorophore, conjugation produces a shift in electrophoretic migration, allowing quantification of protein containing AzK as a percentage of the total protein produced (i.e. fidelity of ncAA incorporation; FIG. 3D).
Ten-fold dilutions of the glycerol stock were re-plated onto solid growth media supplemented with dNaMTP (150 μM), dTPT3TP (10 μM), and 2% w/v agar, then grown at 37° C. overnight. Single colonies were picked and grown in growth media (300 μL) supplemented with corresponding dXTP (various concentrations), and dTPT3TP (10 μM), then monitored for cell growth and collected at an OD600˜1.0. Once all samples were collected, samples were left on ice overnight. The samples were then re-diluted to OD600˜0.1, to a final volume of 300 μL and provided with the corresponding dXTP (various concentrations), and dTPT3TP (10 μM). The remaining culture not used was pelleted and stored at −80° C. for subsequent plasmid isolation using the ZR Plasmid Prep Kit (Zymo Research) to determine UBP retention. When cultures reached an OD600˜0.4-0.6, they were provided with NaMTP (250 μM) and TPT3TP (30 μM), and AzK (10 mM) (or ddH2O for cultures grown in the absence of AzK). Samples were shielded from light after addition of AzK to prevent photodegradation. These samples were then grown at 37° C. for 20 min before adding 1 mM IPTG and grown at 37° C. for an additional 1 h to induce T7 RNAP and transcription of tRNAPyl and PylRS. From this point on, cells were monitored for growth and fluorescence. Expression of sfGFP was then induced with anhydrotetracycline (100 ng/mL).
Affinity Purification of sfGFP. Cell pellets collected from translation experiments were resuspended in BugBuster (100 μL 1×, EMD Millipore) and shaken at room temperature for 15 min. The cell lysate was then diluted with Buffer W (380 μL; 50 mM HEPES pH 8, 150 mM NaCl, 1 mM EDTA) and magnetic Strep-Tactin beads (20 μL, 5% (v/v) suspension of MagStrep ‘type3’ XT beads, IBA Lifesciences) equilibrated in Buffer W, were added. The mixture was gently inverted at 4° C. for 30 min. […] Purified proteins were quantified using the Qubit Protein Assay Kit (Thermo Fisher Scientific). […]

E. coli strain YZ3 = assay: Cell growth / viability in the in vivo screen of dXTPs; type: cell-based; settings: dXTP 5 μM
Experimental: as §1, with “After an additional 1 h of incubation, the expression of sfGFP^151(AXC) was initiated by the addition of anhydrotetracycline (aTc, 100 ng/mL).” left out
Analysis of reporter protein production. To characterize the amount of protein produced, bulk culture fluorescence normalized to cell growth was measured 2.5 h after the induction of protein expression (FIG. 3C). […] While similar at high concentrations, at lower concentrations the use of each dXTP analog results in a greater AzK-dependent increase in fluorescence than does the use of dNaMTP.
Ten-fold dilutions of the glycerol stock were re-plated onto solid growth media supplemented with dNaMTP (150 μM), dTPT3TP (10 μM), and 2% w/v agar, then grown at 37° C. overnight. […] From this point on, cells were monitored for growth and fluorescence. […]

[3] = dXTP 5 μM (lowest concentration)

Row | SMILES | UBP retention in the sfGFP^151(AXC) gene (sfGFP^151(AXC) gene; [3]) | UBP retention in the sfGFP^151(AXC) gene (sfGFP^151(AXC) gene; dXTP 10 μM) | UBP retention in the tRNA^Pyl(GYT) gene (tRNA^Pyl(GYT) gene; [3]) | UBP retention in the tRNA^Pyl(GYT) gene (tRNA^Pyl(GYT) gene; dXTP 10 μM) | sfGFP fluorescence normalized to cell growth (sfGFP^151(AXC) [1]; dXTP 5 μM) | AzK-dependent increase in fluorescence (sfGFP^151(AXC) [1]; lower dXTP concentrations, compared with dNaMTP) | Fidelity of ncAA incorporation (protein shift) (sfGFP^151(AXC) [2]; dXTP 5 μM) | Fidelity of ncAA incorporation (protein shift) (sfGFP^151(AXC) [2]; dXTP 10 μM) | Quantity of pure unnatural protein produced (sfGFP^151(AXC) [2]; especially at lower concentrations) | UBP retention in the sfGFP^151(AXC) gene (sfGFP^151(AXC) gene; dXTP 150 μM) | sfGFP fluorescence normalized to cell growth (sfGFP^151(AXC) [1]; dXTP 150 or 10 μM) | Cell growth / survival (E. coli strain YZ3)
1 | COc1cc(C)c(F)cc1[C@H]1C[C@H](O)[C@@H](COP(=O)(O)OP(=O)(O)OP(=O)(O)O)O1 [d5FMTP] | 94% and ~93% | 96% | 83% | 82% | remained the same | largest AzK-dependent increase in fluorescence | remained similar to that observed at 10 μM | remained high | greatest quantity of pure unnatural protein | – | – | –
2 | COc1cc2ccccc2cc1[C@H]1C[C@H](O)[C@@H](COP(=O)(O)OP(=O)(O)OP(=O)(O)O)O1 [dNaMTP] | – | 73% | – | 71% | – | – | – | dropped precipitously | – | 99% | significantly less fluorescence at 10 μM than at 150 μM | not observed; also recorded: did not survive
